Assay results published in patent US5225417A, “Opioid agonist compounds” (priority 1992, dated 1993).
Structures can show the parent of a compound that is named as a salt. Where two headings read alike, the source gives them in different places.

Assays:
μ opioid receptor = μ opioid receptor (Rattus norvegicus, UniProt P33535); assay: Opiate Binding Assay, μ receptor (3[H]-DAMGO displacement)
δ opioid receptor = δ opioid receptor (Rattus norvegicus, UniProt P33533); assay: Opiate Binding Assay, δ receptor (3[H]-DSLET displacement); conditions: for Mean IC50 μ/δ Ratio: ratio of mean IC50 values for μ and δ opioid receptors
mice or rats = assay: Tail Flick Assay; type: in vivo
Description: The "Tail Flick Assay" uses thermal pain of transient duration, and is a test in which the pain threshold of the mice or rats being analyzed has not been altered. It is useful for evaluating the ability of a compound or drug to increase the animal's pain threshold (i.e. prolong response latencies), rather than to restore normal thresholds.
The heat-induced response to the Tail Flick Assay is a reflex reaction mediated at the level of the spinal cord.
Opiate compounds having clinical efficacy as analgesics generally increase tail flick latencies. Thus, morphine and codeine are generally determined to be active in this test.
The Tail Flick Assay was performed generally in the manner described by G. Woolfe et al., "The Evaluation of the Analgesic Action of Pethidine Hydrochloride (Demerol)," J. Pharmacol. Exp. Ther., 80, 300, (1944), F. D'Amour et al., "A Method for Determining Loss of Pain Sensation," J. Pharmacol. Exp. Ther., 72, 74, 300-307 (1941), and E. Drower et al., "The Antinociceptive Effects of Prostaglandin Antagonists in the Rat," European Journal of Pharmacology, 133, 249-256 (1987).
Male Charles River albino mice and male Charles River Sprague-Dawley rats weighing 20 to 30 g and 200 to 250 g, respectively, was employed in this assay.
Tail flick response latencies (defined as the time that elapsed between the onset of a high intensity beam of light and the reflex removal of the mouse or rat's tail) was measured before (baseline) and again at fixed intervals after subcutaneous or intracerebro-ventricular administration of one of the compounds of the invention, or after the administration of saline (controls). The cut-off latencies established to prevent tissue damage in the animals are 12 seconds or 14 seconds in the mouse and rat, respectively, in the Tail Flick Assay. The significance of any increase in tail flick response latency is determined using analyses of variance.
One way analyses of variance were used to determine the significance of the effect of the compounds of the invention on response latencies.
"Activity" or "Inactivity" was determined at a particular concentration of the compound by a significant increase in tail flick latency above normal latencies.
The numbers in parentheses are calculated ED50 values.

mice = assay: PBQ Writhing Assay; type: in vivo, Charles River male albino mice; conditions: for ED50: Mus musculus, 0.5 h
Description: The Writhing Assay is one of the most widely-used experimental procedures for measuring the analgesic activity of different narcotic and nonnarcotic analgesic agents, and involves the continuous, chemically-induced pain of visceral origin to an animal, such as a mouse or rat. [Gyires et al., Arch. int. Pharmacodyn, 267, 131-140 (1984); C. Vander Wende et al., Fed. Proc., 15, 494 (1956); Koster et al. Fed. Proc. 18 412 (1959); and Witken et al., J. Pharmacol. exp. Ther., 133, 400-408 (1961).] Chemicals which may be used to induce this pain include phenylbenzoquinone (PBQ) and acetic acid. As a result of the chemical irritation to the animal, a characteristic stretching and writhing of the animal (dorsiflexion of the animal's back, extension of its hindlimbs and the strong contraction of its abdominal musculature) will generally occur. […] Drugs which reduce the number of writhes of the animal appear to restore the normal nociceptive threshold of the animal.
Charles River male albino mice, weighing 20 to 30 grams were used in this assay.
Thirty minutes after subcutaneous or intragastric administration to ten mice of either 10 mg or 30 mg per kilogram of body weight of a compound of the present invention ("test compound"), […] of body weight of a 0.025% w/v solution of PBQ was injected intraperitoneally into each mouse. Ten mice which were given saline in place of a test compound of the invention were used as a control group.
Five minutes later, each mouse was individually placed into a glass beaker for observation, and the number of writhes occurring during the following ten-minute period was counted.
A test compound was considered to be "active" in this assay (to have produced analgesia in a mouse) if, after the administration of the compound to the mouse, the number of writhes elicited by a mouse injected with PBQ was equal to, or less than, one-half the median number of writhes recorded for the saline-treated control group of mice that day, as described by Taber in "Predictive Value of Analgesic Assays in Mice and Rats," Advances in Biochemical Psychopharmacology, 8, 191 (1974).
The standard initial screening doses of a test compound employed in this assay were 10 and/or 30 […] for both routes of administration.

[1] = read-out: Mean IC50 Value, δ, rat forebrain membranes, 3[H]-DSLET 1.0 nM, 37° C., pH 7.4
[2] = rat forebrain membranes, 3[H]-DAMGO 2.0 nM, 37° C., pH 7.4
[3] = sc, subcutaneous, mice, 30 min before PBQ, read-out: PBQ writhing assay ED50, S.C.

Sequence of δ opioid receptor (P33533 whole entry): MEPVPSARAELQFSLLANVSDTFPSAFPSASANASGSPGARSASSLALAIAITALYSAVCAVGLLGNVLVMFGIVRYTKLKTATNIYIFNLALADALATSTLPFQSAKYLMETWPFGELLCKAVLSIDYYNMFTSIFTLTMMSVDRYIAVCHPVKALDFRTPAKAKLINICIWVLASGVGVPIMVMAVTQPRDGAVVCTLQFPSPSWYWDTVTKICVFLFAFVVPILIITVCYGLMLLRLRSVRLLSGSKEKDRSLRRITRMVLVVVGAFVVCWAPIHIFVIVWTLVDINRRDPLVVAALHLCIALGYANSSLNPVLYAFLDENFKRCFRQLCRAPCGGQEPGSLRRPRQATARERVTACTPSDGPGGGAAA
Sequence of μ opioid receptor (P33535 whole entry): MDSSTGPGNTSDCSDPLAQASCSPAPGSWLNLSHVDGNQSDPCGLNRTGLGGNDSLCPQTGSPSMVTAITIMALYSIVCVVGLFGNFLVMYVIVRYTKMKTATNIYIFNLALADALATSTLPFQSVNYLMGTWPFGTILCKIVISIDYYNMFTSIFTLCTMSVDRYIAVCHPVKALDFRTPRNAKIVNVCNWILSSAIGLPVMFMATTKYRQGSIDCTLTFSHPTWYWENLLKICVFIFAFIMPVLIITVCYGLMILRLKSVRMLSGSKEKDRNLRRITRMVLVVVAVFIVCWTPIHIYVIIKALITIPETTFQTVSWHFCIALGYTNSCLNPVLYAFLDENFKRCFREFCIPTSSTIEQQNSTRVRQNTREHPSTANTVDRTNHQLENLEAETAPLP

Molecule | IC50 (μ opioid receptor) | IC50 (δ opioid receptor) | Mean IC50 μ/δ Ratio (δ opioid receptor) | also measured
CCOC(=O)CN1CC[C@]23c4c5ccc(O)c4O[C@H]2c2oc4ccccc4c2C[C@@]3(O)[C@H]1C5 (relative stereo) [Example IV, Ethyl 5,6,8,8a,9,14bβ-hexahydro-1,8aβ-dihydroxy-4,8(R,α)-methano-4bS*-7H-bisbenzofuro [3,2-e:2',3'-g]isoquinoline-7-acetate, hydrochloride] | > 10 µM | 0.0118 µM | > 850 | 
CCOC(=O)c1ccc2[nH]c3c(c2c1)C[C@@]1(O)[C@H]2Cc4ccc(O)c5c4[C@@]1(CCN2C)[C@H]3O5 (relative stereo) [Example VI, Ethyl 5,6,7,8,8a,9,14,14bβ-Octahydro1,8αP-dihydroxy-7-methyl-4,8(R,α)methano-4bS*-benzofuro [2,3-a]pyrido[4,3-b]carbazole-11-carboxylate, monohydrochloride] |  |  | 3.8 | IC50 (μ opioid receptor; read-out: Mean IC50 Value, μ, rat forebrain membranes, 3[H]-DAMGO 2.0 nM, 37° C., pH 7.4): 0.248 µM; IC50 (δ opioid receptor; [1]): 0.065 µM
7-(3-Furanylmethyl)-5,6,7,8,14,14bβ-hexahydro-4,8(R,α)-methano-4bS*-benzofuro[2,3-a]pyrido [4,3-b]carbazole-1,8aβ(9H)-diol, hydrochloride [Example XIV] |  |  |  | Mean IC50 Value, μ (μ opioid receptor; [2]): inactive; IC50 (δ opioid receptor; [1]): 0.0318 µM
CC(C)=CCN1CC[C@]23c4c5ccc(O)c4O[C@H]2c2oc4ccccc4c2C[C@@]3(O)[C@H]1C5 (relative stereo) [Example III, 6,7,8,14bβ-tetrahydro-7-(3-methyl-2-butenyl)-4,8 (R,α)-methano-4bS*-5H-bisbenzofuro[3,2-e:2',3'-g]isoquinoline-1,aβ(9H)-diol, monohydrochloride] | 4.67 µM | 0.0511 µM | 91 | 
CN1CC[C@]23c4c5ccc(O)c4O[C@H]2c2oc4ccccc4c2C[C@@]3(OCc2ccccc2)[C@H]1C5 (relative stereo) [Example X, 6,7,8,8a,9,14bβ-hexahydro-7-methyl-8aβ-(phenylmethoxy)-4,8(R,α)-methano-4bS*-5H-bisbenzofuro[3,2-e:2',3'-g]isoquinolin-1-ol, monohydrochloride] | 0.356 µM | 0.008 µM | 44 | 
CO[C@@]12Cc3c(oc4ccccc34)[C@@H]3Oc4c(O)ccc5c4[C@@]31CCN(C)[C@@H]2C5 (relative stereo) [Example IX, 6,7,8,8a,9,14b-hexahydro-8aβ-methoxy-7-methyl-4,8(R,α)-methano-4bS*-5H-bisbenzofuro [3,2-e:2',3'-g]isoquinolin-1-ol, monohydrochloride] | 0.43 µM | 0.001 µM | 430 | Tail flick activity, intracerebroventricular (mice or rats; intracerebroventricular): 10.5 nmol; active dose in tail flick, intracerebroventricularly (mice or rats; intracerebroventricular): ca. 10 nmoles; Tail flick activity, subcutaneous (active at) (mice or rats; subcutaneous): > 30 mpk
Oc1ccc2c3c1O[C@H]1c4oc5ccccc5c4C[C@@]4(O)[C@@H](C2)N(Cc2ccccc2)CC[C@]314 (relative stereo) [Example XVI, 6,7,8,14bβ-Tetrahydro-7-(2-phenylmethyl)-4,8 (R,α)-methano-4bS*-5H-bisbenzofuro [3,2-e:2',3'-g]isoquinoline-1,8aβ(9H)-diol] |  |  |  | Mean IC50 Value, μ (μ opioid receptor; [2]): inactive; inhibition at 0.05 µM (δ opioid receptor; read-out: Percent Displacement, δ at 50 nM): 50%
O=C(O)CN1CC[C@]23c4c5ccc(O)c4O[C@H]2c2oc4ccccc4c2C[C@@]3(O)[C@H]1C5 (relative stereo) [Example VIII, 5,6,8,8a,9,14bβ-Hexahydro-1,8aβ-dihydroxy-4,8 (R,α)-methano-4bS*-7H-bisbenzofuro[3,2-e:2',3'-g]isoquinoline-7-acetic acid, hydrochloride] | 4 µM | 0.16 µM | 25 | 
Oc1ccc2c3c1O[C@H]1c4oc5ccccc5c4C[C@@]4(O)[C@@H](C2)NCC[C@]314 (relative stereo) [Example II, 6,7,8,14bβ-Tetrahydro-4,8(R,α)-methano-4bS*-5H-bisbenzofuro[3,2-e:2',3'-g]isoquinoline-1,8aβ(9H)-diol] | 0.291 µM | 0.0065 µM | 45 | Number of mice in 10 exhibiting inhibition of writhing, I.G. (mice; intragastric, dose not stated in table (screening doses 10 and/or 30 mpk)): 4/10; Number of mice in 10 exhibiting inhibition of writhing, S.C. (mice; subcutaneous, dose not stated in table (screening doses 10 and/or 30 mpk)): 4/10; Percent Displacement, μ (μ opioid receptor; μ receptor, 3[H]-DAMGO 2.0 nM, test concentration not given): 2
CC(=O)Oc1ccc2c3c1O[C@H]1c4oc5ccccc5c4C[C@@]4(OC(C)=O)[C@@H](C2)N(C#N)CC[C@]314 (relative stereo) [Example I, 1,8aβ-Bis(acetyloxy)-5,6,8,8a,9,14bβ-hexahydro-4,8(R,α)-methano-4bS*-7H-bisbenzofuro [3,2-e:2',3'-g]isoquinoline-7-carbonitrile] |  |  |  | ED50 (mice; [3]): 2.4 mg/kg; PBQ writhing assay ED50, I.G. (mice; intragastric, mice, 30 min before PBQ): inactive; inhibition at 0.1 µM (δ opioid receptor; read-out: Percent Displacement, δ at 100 nM): 14%
CN1CC[C@]23c4c5ccc(O)c4O[C@H]2c2[nH]c4ccc(C(=O)O)cc4c2C[C@@]3(O)[C@H]1C5 (relative stereo) [Example V, 5,6,7,8,8a,9,14,14bβ-Octahydro-1,8aβ-dihydroxy-7-methyl-4,8(R,α)-methano-4bS*-benzofuro [2,3-a]pyrido [4,3-b]carbazole-11-carboxylic acid, monohydrochloride] | 0.81 µM | 0.66 µM | 1.2 | ED50 (mice; po, intragastric, mice, 30 min before PBQ, read-out: PBQ writhing assay ED50, I.G.): 3.4 mg/kg; ED50 (mice; [3]): 1.3 mg/kg
Oc1ccc2c3c1O[C@H]1c4oc5ccccc5c4C[C@@]4(O)[C@@H](C2)N(CCc2ccccc2)CC[C@]314 (relative stereo) [Example VII, 6,7,8,14bβ-tetrahydro-7-(2-phenylethyl)-4,8(R,α)-methano-4bS*-5H-bisbenzofuro [3,2-e:2',3'-g]isoquinoline-1,8aβ(9H)-diol, hydrochloride] |  | 0.0345 µM |  | inhibition at 1 µM (μ opioid receptor; read-out: Percent Displacement, μ at 1 μM): 35%
CN1CC[C@]23c4c5ccc(O)c4O[C@H]2c2[nH]c4c(I)cccc4c2C[C@@]3(O)[C@H]1C5 (relative stereo) [Example XII, 5,6,7,8,14,14bβ-Hexahydro-13-iodo-7-methyl-4,8 (R,α)-methano-4bS*-benzofuro[2,3-a]pyrido[4,3-b]carbazole-1,8aβ(9H)-diol, monohydrochloride] | 0.101 µM | 0.0095 µM | 10.6 | 
OCc1ccc(CN2CC[C@]34c5c6ccc(O)c5O[C@H]3c3oc5ccccc5c3C[C@@]4(O)[C@H]2C6)o1 (relative stereo) [Example XIII, 5,6,7,8,14,14bβ-Hexahydro-7-[[5-(hydroxymethyl)-2-furanyl]methyl]-4,8(R,α)-methano-4b S*-benzofuro[2,3-a]pyrido[4,3-b]carbazole-1,8aβ(9H)-diol, monohydrochloride] |  | ~0.1 µM |  | Mean IC50 Value, μ (μ opioid receptor; [2]): inactive
